{"source": "patent US20260048062A1", "about": "“FUSED AMINO PYRIMIDINE COMPOUNDS FOR TREATMENT OF PSYCHOSIS AND PSYCHOTIC DISORDERS” (Ovid Therapeutics Inc., priority 2024, published 2026)", "key": {"[1]": {"target": "T1, KCC2 (Homo sapiens, UniProt Q9H2X9)", "T1 construct": "expressed in transfected cells; host or cells: HEK-293 (ATCC CRL-1573), transient transfection", "T1 sequence (Q9H2X9 1-1116 isoform Q9H2X9-2)": "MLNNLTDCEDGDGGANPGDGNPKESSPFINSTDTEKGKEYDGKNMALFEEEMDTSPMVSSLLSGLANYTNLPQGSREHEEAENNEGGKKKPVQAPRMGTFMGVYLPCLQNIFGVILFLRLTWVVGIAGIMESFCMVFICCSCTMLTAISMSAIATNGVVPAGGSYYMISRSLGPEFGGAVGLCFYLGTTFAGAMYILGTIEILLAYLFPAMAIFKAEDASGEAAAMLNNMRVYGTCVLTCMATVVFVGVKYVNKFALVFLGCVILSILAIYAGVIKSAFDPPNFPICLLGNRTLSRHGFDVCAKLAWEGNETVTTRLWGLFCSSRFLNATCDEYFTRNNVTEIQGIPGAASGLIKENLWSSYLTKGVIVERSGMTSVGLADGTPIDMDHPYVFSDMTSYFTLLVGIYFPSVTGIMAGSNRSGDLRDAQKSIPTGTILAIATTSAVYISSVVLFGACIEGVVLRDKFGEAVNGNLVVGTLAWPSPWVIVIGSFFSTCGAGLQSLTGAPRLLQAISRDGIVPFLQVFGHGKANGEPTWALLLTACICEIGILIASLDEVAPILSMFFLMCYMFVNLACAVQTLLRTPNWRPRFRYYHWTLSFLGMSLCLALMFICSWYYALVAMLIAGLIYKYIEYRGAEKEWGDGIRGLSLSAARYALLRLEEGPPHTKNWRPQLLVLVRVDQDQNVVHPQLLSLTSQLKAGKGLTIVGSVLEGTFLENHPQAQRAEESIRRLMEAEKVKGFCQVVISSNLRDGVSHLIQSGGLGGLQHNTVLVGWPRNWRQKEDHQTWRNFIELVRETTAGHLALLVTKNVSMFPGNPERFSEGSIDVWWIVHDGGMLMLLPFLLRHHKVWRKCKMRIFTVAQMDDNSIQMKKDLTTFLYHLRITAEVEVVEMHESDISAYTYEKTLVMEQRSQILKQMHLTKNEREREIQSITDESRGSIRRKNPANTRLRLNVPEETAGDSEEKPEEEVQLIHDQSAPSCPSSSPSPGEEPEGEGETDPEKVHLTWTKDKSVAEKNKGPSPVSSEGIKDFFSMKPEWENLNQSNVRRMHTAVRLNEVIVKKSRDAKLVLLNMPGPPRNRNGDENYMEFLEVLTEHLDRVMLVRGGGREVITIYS", "test": "FLIPR Tl+ flux assay, HEK-293 cells expressing KCC2", "format": "cell-based", "conditions": "saturating concentration of 3 μM, 1% BCD vehicle", "protocol": "A multi-tiered high-throughput screening assay was used, leveraging a proprietary library of 1.3 million small molecule compounds from AstraZeneca (Cambridge, UK) to identify chemical entities capable of activating KCC2. A single point concentration of 30 μM was used to identify potassium flux using an established thallium (TI+) influx FLIPR assay as the primary read out in HEK-293 cells overexpressing KCC2 (Cardarelli et al., Nat. Med. 23, 1394-1396 (2017); Conway et al., J Biol Chem 292, 21253-21263 (2017); Lee et al., 2022, supra).\nCell Culture and biotinylation. […]\nFLIPR TI Flux assay. HEK-293 cells were washed with HBSS, and then incubated with loading buffer containing TI sensitive fluorescent dye (https://www.moleculardevices.com), 20 μM bumetanide 20 μM ouabain and 2.5 mM probenecid for 1 h at room temperature (RT) under control conditions or with drugs in the dark using a FlexStation 3 microplate reader (Molecular Devices) and imaged […] for 30 min. Stimulus buffer was added containing 5 mM K^+/0.5 mM Tl^+ and cells were imaged every 1.5 over a 190 second time course The initial rate Tl^+ uptake (Relative Fluorescence Units (RFU) per second) was determined following addition of the stimulus buffer as outlined previously (Conway et al., 2017, supra) (Lee et al., 2022, supra). […]"}, "[2]": {"test": "PK study, brain and plasma levels by LC-MS/MS", "format": "in vivo", "conditions": "mice"}}}
{"smiles": "C[C@@H]1CN(c2nc3c(c(Nc4ccc(C5CCCCC5)cc4)n2)COC3)CCO1", "note": "[Compound A, (R)—N-(4-cyclohexylphenyl)-2-(2-methylmorpholino)-5,7-dihydrofuro[3,4-d]pyrimidin-4-amine]", "values": [{"measurement": "maximum potentiation of KCC2", "setting": "[1]", "result": 90, "unit": "%"}, {"measurement": "time at which accumulation in the brain was detected", "setting": "[2]; 50 mg/kg SC", "result": 30, "unit": "min"}, {"measurement": "time by which accumulation in the brain was evident", "setting": "[2]; single 25 mg/kg IV bolus", "result": "≤ 30", "unit": "min"}]}
